# Measurements: article PMC12389018, “Eugenia uniflora L.: Analysis of Chemical Profile and Cytotoxic Action on Tumor (HeLa) and Non-Tumor Cells (NIH/3T3)” (Pharmaceuticals, 2025)
# How the values were obtained:
# [1] = test system: SiHa cells, a cervical squamous cell carcinoma line; parameters: method as in PMID 37935292; conditions: cited from earlier work
# [2] = test system: non-small-cell lung cancer cells NCI-H358; parameters: method as in doi:10.3390/scipharm91030042; conditions: cited from earlier work
# [3] = test system: non-small-cell lung cancer cells A549; parameters: method as in doi:10.3390/scipharm91030042; conditions: cited from earlier work
# [4] = test system: breast cancer cells MDA-MB-468; parameters: method as in doi:10.3390/scipharm91030042; conditions: cited from earlier work
# [5] = test system: breast cancer cells MDA-MB-231; parameters: method as in doi:10.3390/scipharm91030042; conditions: cited from earlier work
# [6] = test system: human cervical (HeLa) cancer cells; conditions: in vitro; cited from earlier work
# [7] = test system: liver (Hep-G2) cancer cells; conditions: in vitro; cited from earlier work
# [8] = test system: HeLa (cervical cancer) cells; test: MTT cell viability assay in HeLa cells; format: cell-based, human
# Method: (§1) The HeLa (cervical cancer) and NIH/3T3 (murine fibroblast) cells were seeded in 96-well plates at a density of 3 × 10^4 cells/well in DMEM (Dulbecco’s Modified Eagle Medium; Gibco, Thermo Fisher, Paisley, UK), supplemented with 10% fetal bovine serum (FBS; Cultilab®, São Paulo, Brazil) and 1% penicillin/streptomycin (Pen/Strep—Cultilab®, Campinas, Brazil). The cells were incubated at 37 °C in a humidified atmosphere containing 5% CO2 for 24 h. After incubation, the cells were treated with EUD and EUA extracts at concentrations ranging from 3.5 µg/mL to 250 µg/mL and incubated for an additional 48 h. The cell lines were kindly donated by Cemib (Multidisciplinary Center for Biological Research in the Laboratory Animal Science Area, Campinas, Brazil)—Unicamp/SP.
# (§2) One row of wells was treated only with the vehicle (culture medium) to serve as the negative control, representing 100% cell viability. Doxorubicin (Libbs®, São Paulo, Brazil) and carboplatin (Blau Farmacêutica®, São Paulo, Brazil) were used as the positive controls.
# Following treatment, the medium was removed, and 100 µL/well of MTT reagent (5 mg/mL; 3-[4,5-dimethylthiazol-2-yl]-2,5-diphenyltetrazolium bromide; Invitrogen, Thermo Fisher, Waltham, MA, USA) was added. The plates were incubated for 4 h at 37 °C. After incubation, the resulting formazan crystals formed in viable cells were solubilized by adding 100 µL/well of DMSO (dimethyl sulfoxide; Labsynth, São Paulo, Brazil). Absorbance was measured at 570 nm using an Epoch-Biotek ELISA microplate spectrophotometer (BioTek Instruments, Winooski, VT, USA).
# Statistical analysis was performed using GraphPad Prism 8.4.6 (GraphPad Software, Inc., Boston, MA, USA) via one-way ANOVA followed by Tukey’s post hoc test. Differences were considered statistically significant at p < 0.05. All the experiments were conducted in triplicate.
# [9] = test system: NIH/3T3 (murine fibroblast) cells; test: MTT cell viability assay in NIH/3T3 cells; format: cell-based
# Method: as §1, §2
# Following treatment, the medium was removed, and 100 µL/well of MTT reagent (5 mg/mL; 3-[4,5-dimethylthiazol-2-yl]-2,5-diphenyltetrazolium bromide; Invitrogen, Thermo Fisher, Waltham, MA, USA) was added. […] Absorbance was measured at 570 nm using an Epoch-Biotek ELISA microplate spectrophotometer (BioTek Instruments, Winooski, VT, USA). […]
# [10] = test system: HeLa cells vs NIH/3T3 cells; test: Selectivity index (IC50 NIH/3T3 divided by IC50 HeLa); format: cell-based; conditions: IC50 NIH/3T3 / IC50 HeLa; SI ≥ 2 considered selective
# Method: The selectivity index (SI) was calculated by dividing the IC50 value of NIH/3T3 cells by the IC50 of HeLa cells. Samples with SI ≥ 2 were considered selectively cytotoxic to cancer cells.
# HeLa cells [11] = test: Cell migration assay (scratch assay); format: cell-based, human; conditions: EUD 7.5 μg/mL, EUA 10 μg/mL, doxorubicin 0.375 μg/mL
# Method: The HeLa cells (70,000–80,000 cells/well) were seeded in 24-well plates with DMEM supplemented with 10% FBS and 1% Pen/Strep and incubated at 37 °C with 5% CO2 until 80% confluence. The medium was replaced with DMEM containing 0.2% FBS, and after 24 h, a scratch was made in the cell monolayer using a 1000 µL pipette tip. The cells were washed with sterile PBS, and they were treated with doxorubicin (positive control) and EUD and EUA extracts at ¼ of their IC50 values: 7.5 µg/mL (EUD), 10 µg/mL (EUA), and 0.375 µg/mL (doxorubicin).
# Images were captured at 0 h (T0), 12 h (T1), 18 h (T2), and 24 h (T3) using an EVOS XL Core Imaging System microscope (10× objective). Scratch area percentages were analyzed using the ImageJ software 1.54g/Java 1.8.0_421 (32-bit), and statistical analysis was performed using one-way ANOVA with GraphPad Prism 8.4.3. All the experiments were conducted in triplicate.
# HeLa cells [12] = test: Cell cycle analysis by flow cytometry with PI staining; format: cell-based, human; conditions: treated at IC50, 48 h
# Method: The HeLa cells (2 × 10^5 cells/well) were seeded in 6-well plates and incubated for 24 h. The cells were then treated with the EUD and EUA extracts and doxorubicin at their respective IC50 concentrations. The vehicle-treated cells served as the negative control. After 48 h, cells were harvested with trypsin, centrifuged, fixed in 70% ethanol, and stained with propidium iodide (PI) (Sigma-Aldrich®). The samples were incubated at 37 °C for 30 min in the dark and analyzed using a BD Accuri™ C6 Plus flow cytometer. Histograms were processed with the Cell Quest Pro software (version 5.1). Data was analyzed using two-way ANOVA in GraphPad Prism 8.4.3, with significance at p < 0.05.
molecule,measurement,setting,value
"O=c1oc2c(O)c(O)cc3c(=O)oc4c(O)c(O)cc1c4c23 [ellagic acid, Ellagic acid]",effect on proliferation of SiHa cells,[1],inhibit cell proliferation
same,effect on proliferation of NCI-H358 cells,[2],inhibited the proliferation
same,effect on proliferation of A549 cells,[3],inhibited the proliferation
same,effect on proliferation of MDA-MB-468 cells,[4],inhibited the proliferation
same,effect on proliferation of MDA-MB-231 cells,[5],inhibited the proliferation
unifloratrin,cytotoxicity against HeLa cancer cells,[6],considerable cytotoxicity
same,cytotoxicity against Hep-G2 cancer cells,[7],considerable cytotoxicity
COc1cccc2c1C(=O)c1c(O)c3c(c(O)c1C2=O)C[C@@](O)(C(=O)CO)C[C@@H]3O[C@H]1C[C@H](N)[C@H](O)[C@H](C)O1 [Doxorubicin],IC50,"[8]; Homo sapiens, HeLa, 48 h treatment, read-out: IC50 Tumor Cells HeLa",1.59 µg/mL
same,IC50,"[9]; Mus musculus, NIH3T3, 48 h treatment, read-out: IC50 Non-Tumor cells NIH/3T3",2.32 µg/mL
same,Selectivity Index (SI),[10],1.5
same,free area (scratch) at T1,HeLa cells [11]; 12 h,39.51%
same,free area (scratch) at T2,HeLa cells [11]; 18 h,36.49%
same,free area (scratch) at T3,HeLa cells [11]; 24 h,32.17%
same,inhibition of cell migration compared to the negative control,HeLa cells [11],did not significantly inhibit tumor cell migration
same,cells in SubG0 phase,HeLa cells [12]; negative control 2.97%,44.20%
same,cells in G2/M phase,HeLa cells [12]; negative control 7.97%,0.245%
same,cells in S phase,HeLa cells [12]; negative control 30.55%,12.1%
same,cells in G1/G0 phase,HeLa cells [12]; negative control 56.75%,42.75%
N.N.O=C([O-])C1(C(=O)[O-])CCC1.[Pt+2] [Carboplatin],IC50 Tumor Cells HeLa,[8]; 48 h treatment,52.40 µg/mL
same,concentrations with statistically significant reduction of HeLa cell viability vs negative control,[8]; p < 0.05,> 25 µg/mL
same,IC50 Non-Tumor cells NIH/3T3,[9]; 48 h treatment,38.32 µg/mL
same,Selectivity Index (SI),[10],0.73
myricitrin,cytotoxicity against HeLa cancer cells,[6],considerable cytotoxicity
same,cytotoxicity against Hep-G2 cancer cells,[7],considerable cytotoxicity
